Experimental data: PubChem BioAssay (NCI)
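Protocol summary: plate cells (96-well), add compound at 5 concentrations, incubate 48 h, interpolate endpoints linearly. TGI denotes the concentration required for complete inhibition of growth.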

Tests used:
Assay in all cases: NCI-60 cell line screen, 48 h
[1] = tested on: CCRF-CEM leukemia
[2] = tested on: NCI-H226 lung
[3] = tested on: SN12C renal
[4] = tested on: MCF7 breast
[5] = tested on: SNB-19 CNS
[6] = tested on: HCC-2998 colon
[7] = tested on: ACHN renal
[8] = tested on: HCT-15 colon
[9] = tested on: OVCAR-8 ovarian
[10] = tested on: HOP-92 NSCLC
[11] = tested on: MOLT-4 leukemia
[12] = tested on: TK-10 renal
[13] = tested on: RPMI-8226 leukemia
[14] = tested on: COLO 205 colon
[15] = tested on: T-47D breast
[16] = tested on: SNB-75 CNS
[17] = tested on: PC-3 prostate
[18] = tested on: EKVX NSCLC
[19] = tested on: MDA-MB-435
[20] = tested on: SF-539 CNS
[21] = tested on: UACC-257 melanoma
[22] = tested on: SW-620 colon
[23] = tested on: HL-60(TB) leukemia
[24] = tested on: BT-549 breast
[25] = tested on: SK-MEL-5 melanoma
[26] = tested on: A549 NSCLC
[27] = tested on: OVCAR-4 ovarian
[28] = tested on: K-562 leukemia
[29] = tested on: 786-0 renal
[30] = tested on: OVCAR-3 ovarian
[31] = tested on: A498 renal
[32] = tested on: HS 578T breast
[33] = tested on: SR leukemia
[34] = tested on: LOX IMVI melanoma
[35] = tested on: IGROV1 ovarian
[36] = tested on: DU-145 prostate
[37] = tested on: M14 melanoma
[38] = tested on: SF-295 CNS
[39] = tested on: NCI-H522 lung
[40] = tested on: OVCAR-5 ovarian
[41] = tested on: MALME-3M melanoma
[42] = tested on: CAKI-1 renal
[43] = tested on: MDA-N
[44] = tested on: KM12 colon
[45] = tested on: U251 CNS
[46] = tested on: NCI-H23 lung
[47] = tested on: UO-31 renal
[48] = tested on: SK-MEL-28 melanoma
[49] = tested on: NCI-H460 lung
[50] = tested on: HOP-62 NSCLC
[51] = tested on: HT29 colon
[52] = tested on: HCT-116 colon
[53] = tested on: RXF 393 renal
[54] = tested on: NCI/ADR-RES ovarian
[55] = tested on: MDA-MB-231 breast
[56] = tested on: SF-268 CNS
[57] = tested on: SK-OV-3 ovarian
[58] = tested on: SK-MEL-2 melanoma
[59] = tested on: UACC-62 melanoma

CN(C)Cc1cc(C(=O)/C=C/c2ccccc2)cc(CN(C)C)c1O
TGI [1]: > 100 µM
TGI [2]: 78.5 µM
TGI [3]: 30.9 µM
TGI [4]: > 100 µM
TGI [5]: > 100 µM
TGI [6]: 64.8 µM
TGI [7]: > 100 µM
TGI [8]: > 100 µM
TGI [9]: 99.8 µM
TGI [10]: 67.4 µM
TGI [11]: 63.7 µM
TGI [12]: > 100 µM
TGI [13]: 54.3 µM
TGI [14]: 31.9 µM
TGI [15]: > 100 µM
TGI [16]: > 100 µM
TGI [17]: 36.9 µM
TGI [18]: > 100 µM
TGI [19]: > 100 µM
TGI [20]: 46.5 µM
TGI [21]: 27.9 µM
TGI [22]: 45.1 µM
TGI [23]: 42.3 µM
TGI [24]: 42.7 µM
TGI [25]: 38.4 µM
TGI [26]: 68.9 µM
TGI [27]: > 100 µM
TGI [28]: 36.8 µM
TGI [29]: > 100 µM
TGI [30]: 99.1 µM
TGI [31]: 78.6 µM
TGI [32]: > 100 µM
TGI [33]: 59.1 µM
TGI [34]: 17.7 µM
TGI [35]: > 100 µM
TGI [36]: > 100 µM
TGI [37]: 63.1 µM
TGI [38]: 39.6 µM
TGI [39]: 40.8 µM
TGI [40]: > 100 µM
TGI [41]: 44.9 µM
TGI [42]: 61.8 µM
TGI [43]: 35.7 µM
TGI [44]: 33.8 µM
TGI [45]: > 100 µM
TGI [46]: > 100 µM
TGI [47]: 40.7 µM
TGI [48]: > 100 µM
TGI [49]: 44.8 µM
TGI [50]: > 100 µM
TGI [51]: 41.4 µM
TGI [52]: 87.8 µM
TGI [53]: 71.8 µM
TGI [54]: > 100 µM
TGI [55]: 58.1 µM
TGI [56]: > 100 µM

COc1cc2c(cc1O)CC1c3c(cc(O)c(OC)c3-2)CCN1C (stereo not given)
TGI [1]: > 100 µM
TGI [2]: > 100 µM
TGI [3]: > 100 µM
TGI [4]: > 100 µM
TGI [5]: > 100 µM
TGI [6]: > 100 µM
TGI [7]: > 100 µM
TGI [8]: > 100 µM
TGI [9]: > 100 µM
TGI [10]: > 100 µM
TGI [11]: > 100 µM
TGI [12]: > 100 µM
TGI [13]: > 100 µM
TGI [14]: > 100 µM
TGI [15]: > 100 µM
TGI [16]: > 100 µM
TGI [17]: > 100 µM
TGI [18]: > 100 µM
TGI [19]: > 100 µM
TGI [20]: > 100 µM
TGI [21]: > 100 µM
TGI [22]: > 100 µM
TGI [23]: > 100 µM
TGI [24]: > 100 µM
TGI [25]: > 100 µM
TGI [26]: > 100 µM
TGI [27]: > 100 µM
TGI [28]: > 100 µM
TGI [29]: > 100 µM
TGI [30]: > 100 µM
TGI [31]: > 100 µM
TGI [32]: > 100 µM
TGI [33]: > 100 µM
TGI [34]: > 100 µM
TGI [35]: > 100 µM
TGI [36]: > 100 µM
TGI [37]: > 100 µM
TGI [38]: > 100 µM
TGI [39]: > 100 µM
TGI [57]: > 100 µM
TGI [40]: > 100 µM
TGI [41]: > 100 µM
TGI [42]: > 100 µM
TGI [43]: > 100 µM
TGI [44]: > 100 µM
TGI [45]: > 100 µM
TGI [46]: > 100 µM
TGI [47]: > 100 µM
TGI [48]: > 100 µM
TGI [49]: > 100 µM
TGI [50]: > 100 µM
TGI [58]: > 100 µM
TGI [59]: > 100 µM
TGI [51]: > 100 µM
TGI [52]: > 100 µM
TGI [53]: > 100 µM
TGI [54]: > 100 µM
TGI [55]: > 100 µM
TGI [56]: > 100 µM
